{
  "source": "patent US20190105367A1",
  "about": "“ANTIMICROBIAL 4-OXOQUINOLIZINES” (Emergent Product Development Gaithersburg Inc., priority 2011, published 2019)",
  "key": {"[1]": {"system": "P. aeruginosa ATCC 27853", "experiment": "MIC, selected panel of bacterial strains (Example 5)", "type": "cell-based, Pseudomonas aeruginosa"}, "[2]": {"system": "E. coli ATCC 25922", "experiment": "MIC, selected panel of bacterial strains (Example 5)", "type": "cell-based, Escherichia coli"}, "[3]": {"system": "B. thailandensis E264", "experiment": "microbe, parasite or virus in culture", "type": "cell-based, Burkholderia thailandensis"}, "[4]": {"system": "S. aureus ATCC 43300 (MRSA, FQ-S)", "experiment": "MIC, selected panel of bacterial strains (Example 5)", "type": "cell-based, Staphylococcus aureus", "settings": "MRSA, FQ-S"}, "[5]": {"system": "A. baumannii ATCC 19606", "experiment": "MIC, selected panel of bacterial strains (Example 5)", "type": "cell-based, Acinetobacter baumannii"}, "[6]": {"system": "S. aureus BAA-1556 (USA300-Type) (MRSA, FQ-R)", "experiment": "MIC, selected panel of bacterial strains (Example 5)", "type": "cell-based, Staphylococcus aureus", "settings": "MRSA, FQ-R"}, "[7]": {"system": "S. aureus ATCC 25923", "experiment": "MIC, selected panel of bacterial strains (Example 5)", "type": "cell-based, Staphylococcus aureus"}},
  "data": [
    {"smiles": "Cc1c(-c2ccc(CN)cc2)c(F)cn2c(=O)c(C(=O)[O-])cc(C3CC3)c12.[K+]", "note": "[Compound 6K salt]", "values": [
      {"measurement": "MICs against Gram negative bacteria P. aeruginosa ATCC 27853", "setting": "[1]", "value": "4 to 8", "unit": "µg/mL"},
      {"measurement": "MICs against Gram negative bacteria E. coli ATCC 25922", "setting": "[2]", "value": "0.064 to 0.125", "unit": "µg/mL"},
      {"measurement": "MICs against Gram negative bacteria B. thailandensis E264", "setting": "[3]", "value": 4, "unit": "µg/mL"},
      {"measurement": "MICs against Gram positive bacteria S. aureus ATCC 43300 (MRSA, FQ-S)", "setting": "[4]", "value": 0.064, "unit": "µg/mL"},
      {"measurement": "MICs against Gram negative bacteria A. baumannii ATCC 19606", "setting": "[5]", "value": 1, "unit": "µg/mL"},
      {"measurement": "MICs against Gram positive bacteria S. aureus BAA-1556 (USA300-Type) (MRSA, FQ-R)", "setting": "[6]", "value": 1, "unit": "µg/mL"},
      {"measurement": "MICs against Gram positive bacteria S. aureus ATCC 25923", "setting": "[7]", "value": 0.125, "unit": "µg/mL"}
    ]}
  ]
}
